Reference: the supplement of paper PMC10307832

Legend:
Assay in all cases: relative viability (nuclei count vs DMSO), 5 days (fraction); higher = more cells survive
201T = tested on: 201T
Summary of the method: (§1)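 A single step with final 0.05% Triton X-100, 1% formaldehyde and 1 ug/ml Hoechst fixed the cells and stained nuclei 5 days after treatment. Lung cancer cell lines in 1536-well plates had been treated by pin tool the day after seeding with one drug alone or a fixed anchor-drug dose plus five library-drug doses (not always all listed) in √10 steps, and nuclei were counted on 4× images. Relative viability is the ratio of nuclei in treated wells to nuclei in vehicle wells, taken as the median of duplicate plates.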

A-427 = tested on: A-427
Summary of the method: as §1

COR-L23 = tested on: COR-L23
Summary of the method: as §1

H3255 = tested on: H3255
Summary of the method: as §1

HCC-44 = tested on: HCC-44
Summary of the method: as §1

LC-2-ad = tested on: LC-2-ad
Summary of the method: as §1

LCLC-103H = tested on: LCLC-103H
Summary of the method: as §1

LCLC-97TM1 = tested on: LCLC-97TM1
Summary of the method: as §1

LK-2 = tested on: LK-2
Summary of the method: as §1

LU99A = tested on: LU99A
Summary of the method: as §1

NCI-H1650 = tested on: NCI-H1650
Summary of the method: as §1

NCI-H1793 = tested on: NCI-H1793
Summary of the method: as §1

NCI-H2347 = tested on: NCI-H2347
Summary of the method: as §1

NCI-H23 = tested on: NCI-H23
Summary of the method: as §1

NCI-H460 = tested on: NCI-H460
Summary of the method: as §1

NCI-H596 = tested on: NCI-H596
Summary of the method: as §1

NCI-H727 = tested on: NCI-H727
Summary of the method: as §1

PC-14 = tested on: PC-14
Summary of the method: as §1

SW 1573 = tested on: SW 1573
Summary of the method: as §1

SW 900 = tested on: SW 900
Summary of the method: as §1

`Nc1ccn([C@@H]2O[C@H](CO)[C@@H](O)[C@@H]2O)c(=O)n1` [Cytarabine] + Nc1ncn([C@H]2C[C@H](O)[C@@H](CO)O2)c(=O)n1 [Decitabine] (partner 2 µM) showed a relative viability (201T; first compound 0.005 µM) of 0.847, a relative viability (201T; first compound 0.01581 µM) of 0.853 and a relative viability (201T; first compound 0.05 µM) of 0.802. For the same compound, the relative viability (201T; first compound 0.1581 µM) was 0.72, the relative viability (201T; first compound 0.5 µM) was 0.668 and the relative viability (A-427; first compound 0.005 µM) was 0.475. It also gave a relative viability (A-427; first compound 0.01581 µM) of 0.421, a relative viability (A-427; first compound 0.05 µM) of 0.361 and a relative viability (A-427; first compound 0.1581 µM) of 0.259. For the same compound, the relative viability (A-427; first compound 0.5 µM) was 0.263, the relative viability (COR-L23; first compound 0.005 µM) was 0.43 and the relative viability (COR-L23; first compound 0.01581 µM) was 0.377. The relative viability (COR-L23; first compound 0.05 µM) was 0.341, the relative viability (COR-L23; first compound 0.1581 µM) was 0.205 and the relative viability (COR-L23; first compound 0.5 µM) was 0.156. For the same compound, the relative viability (H3255; first compound 0.005 µM) was 0.732, the relative viability (H3255; first compound 0.01581 µM) was 0.555 and the relative viability (H3255; first compound 0.05 µM) was 0.637. The relative viability (H3255; first compound 0.1581 µM) was 0.588, the relative viability (H3255; first compound 0.5 µM) was 0.375 and the relative viability (HCC-44; first compound 0.005 µM) was 1.04. For the same compound, the relative viability (HCC-44; first compound 0.01581 µM) was 0.941, the relative viability (HCC-44; first compound 0.05 µM) was 0.87 and the relative viability (HCC-44; first compound 0.1581 µM) was 0.748. The relative viability (HCC-44; first compound 0.5 µM) was 0.737, the relative viability (LC-2-ad; first compound 0.005 µM) was 0.727 and the relative viability (LC-2-ad; first compound 0.01581 µM) was 0.682. It also gave a relative viability (LC-2-ad; first compound 0.05 µM) of 0.759, a relative viability (LC-2-ad; first compound 0.1581 µM) of 0.69 and a relative viability (LC-2-ad; first compound 0.5 µM) of 0.499. It also gave a relative viability (LCLC-103H; first compound 0.005 µM) of 0.71, a relative viability (LCLC-103H; first compound 0.01581 µM) of 0.734 and a relative viability (LCLC-103H; first compound 0.05 µM) of 0.73. The relative viability (LCLC-103H; first compound 0.1581 µM) was 0.751, the relative viability (LCLC-103H; first compound 0.5 µM) was 0.724 and the relative viability (LCLC-97TM1; first compound 0.005 µM) was 0.205. The relative viability (LCLC-97TM1; first compound 0.01581 µM) was 0.164, the relative viability (LCLC-97TM1; first compound 0.05 µM) was 0.211 and the relative viability (LCLC-97TM1; first compound 0.1581 µM) was 0.127. The relative viability (LCLC-97TM1; first compound 0.5 µM) was 0.111, the relative viability (LK-2; first compound 0.005 µM) was 0.234 and the relative viability (LK-2; first compound 0.01581 µM) was 0.249. For the same compound, the relative viability (LK-2; first compound 0.05 µM) was 0.15, the relative viability (LK-2; first compound 0.1581 µM) was 0.0989 and the relative viability (LK-2; first compound 0.5 µM) was 0.132. The relative viability (LU99A; first compound 0.005 µM) was 0.863, the relative viability (LU99A; first compound 0.01581 µM) was 0.781 and the relative viability (LU99A; first compound 0.05 µM) was 0.93. For the same compound, the relative viability (LU99A; first compound 0.1581 µM) was 0.925, the relative viability (LU99A; first compound 0.5 µM) was 0.823 and the relative viability (NCI-H1650; first compound 0.005 µM) was 0.294. The relative viability (NCI-H1650; first compound 0.01581 µM) was 0.286, the relative viability (NCI-H1650; first compound 0.05 µM) was 0.276 and the relative viability (NCI-H1650; first compound 0.1581 µM) was 0.17. The relative viability (NCI-H1650; first compound 0.5 µM) was 0.172, the relative viability (NCI-H1793; first compound 0.005 µM) was 0.585 and the relative viability (NCI-H1793; first compound 0.01581 µM) was 0.35. The relative viability (NCI-H1793; first compound 0.05 µM) was 0.336, the relative viability (NCI-H1793; first compound 0.1581 µM) was 0.212 and the relative viability (NCI-H1793; first compound 0.5 µM) was 0.237. The relative viability (NCI-H2347; first compound 0.005 µM) was 0.61, the relative viability (NCI-H2347; first compound 0.01581 µM) was 0.56 and the relative viability (NCI-H2347; first compound 0.05 µM) was 0.507. The relative viability (NCI-H2347; first compound 0.1581 µM) was 0.537, the relative viability (NCI-H2347; first compound 0.5 µM) was 0.573 and the relative viability (NCI-H23; first compound 0.005 µM) was 0.296. It also gave a relative viability (NCI-H23; first compound 0.01581 µM) of 0.267, a relative viability (NCI-H23; first compound 0.05 µM) of 0.274 and a relative viability (NCI-H23; first compound 0.1581 µM) of 0.195. The relative viability (NCI-H23; first compound 0.5 µM) was 0.193, the relative viability (NCI-H460; first compound 0.005 µM) was 0.451 and the relative viability (NCI-H460; first compound 0.01581 µM) was 0.406. It also gave a relative viability (NCI-H460; first compound 0.05 µM) of 0.336, a relative viability (NCI-H460; first compound 0.1581 µM) of 0.0621 and a relative viability (NCI-H460; first compound 0.5 µM) of 0.0458. The relative viability (NCI-H596; first compound 0.005 µM) was 0.858, the relative viability (NCI-H596; first compound 0.01581 µM) was 0.916 and the relative viability (NCI-H596; first compound 0.05 µM) was 0.658. The relative viability (NCI-H596; first compound 0.1581 µM) was 0.581, the relative viability (NCI-H596; first compound 0.5 µM) was 0.767 and the relative viability (NCI-H727; first compound 0.005 µM) was 0.964. The relative viability (NCI-H727; first compound 0.01581 µM) was 0.713, the relative viability (NCI-H727; first compound 0.05 µM) was 0.443 and the relative viability (NCI-H727; first compound 0.1581 µM) was 0.474. The relative viability (NCI-H727; first compound 0.5 µM) was 0.522, the relative viability (PC-14; first compound 0.005 µM) was 0.161 and the relative viability (PC-14; first compound 0.01581 µM) was 0.0896. It also gave a relative viability (PC-14; first compound 0.05 µM) of 0.114, a relative viability (PC-14; first compound 0.1581 µM) of 0.0408 and a relative viability (PC-14; first compound 0.5 µM) of 0.0434. For the same compound, the relative viability (SW 1573; first compound 0.005 µM) was 0.347, the relative viability (SW 1573; first compound 0.01581 µM) was 0.184 and the relative viability (SW 1573; first compound 0.05 µM) was 0.247. It also gave a relative viability (SW 1573; first compound 0.1581 µM) of 0.121, a relative viability (SW 1573; first compound 0.5 µM) of 0.083 and a relative viability (SW 900; first compound 0.005 µM) of 0.384. It also gave a relative viability (SW 900; first compound 0.01581 µM) of 0.344, a relative viability (SW 900; first compound 0.05 µM) of 0.325 and a relative viability (SW 900; first compound 0.1581 µM) of 0.199. For the same compound, the relative viability (SW 900; first compound 0.5 µM) was 0.287.
